Laboratory results published in article PMC6001238, “Iterative Chemical Engineering of Vancomycin Leads to Novel Vancomycin Analogs With a High in Vitro Therapeutic Index” (Frontiers in Microbiology, 2018).
≈ marks a conversion by molar mass, not a printed value. Where two headings read alike, the source gives them in different places.

Assays:
[1] = system: Murine leukemia (L1210) cells; assay: Cytostatic activity, L1210 cell proliferation; type: cell-based; conditions: Mus musculus, L1210, 48 h, read-out: Toxicity (IC50) L1210
Procedure, shortened: (§1)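 Test compounds, serially diluted, received an equal volume of cell suspension at 300,000–500,000 cells/mL. After 37°C incubation (2 days for L1210, 3 for CEM, 4 for HeLa), cells were enumerated by Coulter counting and 50%-inhibitory concentrations calculated per cell type.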

[2] = system: MRSA KS6; assay: MIC, broth microdilution, MRSA KS6; type: cell-based, Staphylococcus aureus
Procedure, shortened: (§2)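 MIC values come from broth microdilution run to CLSI susceptibility-testing standards. Ultrapure water and uninoculated broth served as controls. In one series, vancomycin at a final 10 μM was co-dosed with the analogue or comparator antibiotic.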

[3] = system: E. faecalis VRE 6; assay: MIC, broth microdilution, vancomycin-resistant E. faecalis VRE 6 (VanA); type: cell-based, Enterococcus faecalis
Procedure, shortened: as §2

[4] = system: MRSA; assay: Minimum bactericidal concentration against MRSA; type: cell-based, Staphylococcus aureus
Experimental: Plates were incubated overnight at 37°C and colony growth was inspected.

[5] = system: S. aureus VSSA (ATCC 6538); assay: MIC, broth microdilution, vancomycin-sensitive S. aureus (VSSA/MSSA, ATCC 6538); type: cell-based, Staphylococcus aureus
Procedure, shortened: as §2

[6] = system: 24 clinical MRSA isolates; assay: MIC against a set of 24 clinical MRSA isolates (range, MIC50, TI); type: cell-based, Staphylococcus aureus
Procedure, shortened: as §2

[7] = system: VE 157 (VanB); assay: MIC, VanB-type VRE strain VE 157; type: cell-based, Enterococcus; conditions: Enterococcus
Procedure, shortened: as §2

[8] = system: Clostridium difficile AIU ribotype 027; assay: MIC, plate drop assay, C. difficile AIU ribotype 027; type: cell-based
Procedure, shortened: (§3)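 Lawns of each strain were made in soft BHI agar (0.4%) supplemented with CaCl2⋅2H2O and MgCl2⋅6H2O. Twofold compound dilutions (10 μL) were spotted, air-dried and incubated overnight at 37°C anaerobically; MIC read as cleared spots, in triplicate with water as negative control.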

[9] = system: E. faecalis VRE 37; assay: MIC, broth microdilution, vancomycin-resistant E. faecalis VRE 37 (VanA); type: cell-based, Enterococcus faecalis
Procedure, shortened: as §2

[10] = system: E. faecalis VRE 29; assay: MIC, broth microdilution, vancomycin-resistant E. faecalis VRE 29 (VanA); type: cell-based, Enterococcus faecalis
Procedure, shortened: as §2

[11] = system: S. aureus VRSA; assay: MIC, broth microdilution, vancomycin-resistant S. aureus (VRSA); type: cell-based, Staphylococcus aureus
Procedure, shortened: as §2

[12] = system: E. faecalis VRE 53; assay: MIC, broth microdilution, vancomycin-resistant E. faecalis VRE 53 (VanA); type: cell-based, Enterococcus faecalis
Procedure, shortened: as §2

[13] = system: human T-lymphocyte (CEM) cells; assay: Cytostatic activity, CEM cell proliferation; type: cell-based; conditions: Homo sapiens, CCRF-CEM, 72 h, read-out: Toxicity (IC50) CEM
Procedure, shortened: as §1

[14] = system: VE 152 (VanB); assay: MIC, VanB-type VRE strain VE 152; type: cell-based, Enterococcus; conditions: Enterococcus
Procedure, shortened: as §2

[15] = system: VE 150 (VanB); assay: MIC, VanB-type VRE strain VE 150; type: cell-based, Enterococcus; conditions: Enterococcus
Procedure, shortened: as §2

[16] = system: human cervix carcinoma (HeLa) cells; assay: Cytostatic activity, HeLa cell proliferation; type: cell-based; conditions: Homo sapiens, HeLa, 96 h, read-out: Toxicity (IC50) HeLa
Procedure, shortened: as §1

[17] = system: VE 149 (VanB); assay: MIC, VanB-type VRE strain VE 149; type: cell-based, Enterococcus; conditions: Enterococcus
Procedure, shortened: as §2

[18] = system: VE 148 (VanB); assay: MIC, VanB-type VRE strain VE 148; type: cell-based, Enterococcus; conditions: Enterococcus
Procedure, shortened: as §2

[19] = system: VE 82 (VanC1); assay: MIC, VanC1-type VRE strain VE 82; type: cell-based, Enterococcus gallinarum; conditions: Enterococcus gallinarum
Procedure, shortened: as §2

[20] = system: MRSA KS2; assay: MIC, broth microdilution, MRSA KS2; type: cell-based, Staphylococcus aureus
Procedure, shortened: as §2

[21] = system: L1210, CEM and HeLa cell lines; assay: Cytostatic activity, average or summary over L1210, CEM and HeLa; type: cell-based
Procedure, shortened: as §1

[22] = system: MRSA KS89; assay: MIC, broth microdilution, MRSA KS89; type: cell-based, Staphylococcus aureus
Procedure, shortened: as §2

[23] = system: 33 clinical VRE isolates; assay: MIC against a set of 33 clinical VRE isolates (range, MIC50, TI); type: cell-based, Enterococcus faecalis; conditions: VRE; for TI (IC50/MIC50): in vitro therapeutic index
Procedure, shortened: as §2

[24] = system: S. aureus VISA/HIP5827; assay: MIC, broth microdilution, vancomycin-intermediate S. aureus VISA HIP5827; type: cell-based, Staphylococcus aureus
Procedure, shortened: as §2

[25] = system: E. faecalis VSE 1; assay: MIC, broth microdilution, vancomycin-sensitive E. faecalis (VSE 1); type: cell-based, Enterococcus faecalis
Procedure, shortened: as §2

[26] = system: Clostridium difficile ATJ ribotype 014/20; assay: MIC, plate drop assay, C. difficile ATJ ribotype 014/20; type: cell-based
Procedure, shortened: as §3

[27] = system: MRSA KS1; assay: MIC, broth microdilution, MRSA KS1; type: cell-based, Staphylococcus aureus
Procedure, shortened: as §2

**Q.** Which results are given for `CN[C@H](CC(C)C)C(=O)N[C@H]1C(=O)N[C@@H](CC(N)=O)C(=O)N[C@H]2C(=O)N[C@H]3C(=O)N[C@H](C(=O)N[C@H](C(=O)O)c4cc(O)cc(O)c4-c4cc3ccc4O)[C@H](O)c3ccc(c(Cl)c3)Oc3cc2cc(c3O[C@@H]2O[C@H](CO)[C@@H](O)[C@H](O)[C@H]2O[C@H]2C[C@](C)(N)[C@H](O)[C@H](C)O2)Oc2ccc(cc2Cl)[C@H]1O` [Vancomycin]?
**A.** IC50 [1]: > 250 µM; MIC-fold improvement vs. vancomycin ([2]; MRSA KS6, ratio of MIC of vancomycin and MIC of analogue): 1; MIC ([2]; Staphylococcus aureus, MRSA): 0.78 µM (≈ 1.13 µg/mL); MICvanc/MICi ([3]; E. faecalis VRE 6, ratio of MIC of vancomycin and MIC of analogue): 1; MIC ([3]; Enterococcus faecalis VRE 6 (vancomycin-resistant), read-out: MIC): 200 µM (≈ 290 µg/mL); MIC ([3]; Enterococcus faecalis, VRE): 200 µM (≈ 290 µg/mL); MIC-fold improvement vs. vancomycin ([3]; VRE 6, ratio of MIC of vancomycin and MIC of analogue): 1; MBC relative to MIC [4]: MBC equaling their MIC values; MIC ([5]; Staphylococcus aureus, ATCC6538): 0.78 µM (≈ 1.13 µg/mL); MIC-fold improvement vs. vancomycin ([5]; VSSA, ratio of MIC of vancomycin and MIC of analogue): 1; MIC Range ([6]; 24 clinical MRSA isolates): 0.78 to 6.25 µM; MIC50 ([6]; Staphylococcus aureus, MRSA): 1.56 µM (≈ 2.26 µg/mL); TI (IC50/MIC50) ([6]; in vitro therapeutic index, MRSA): 160; MIC [7]: 100 µM (≈ 145 µg/mL); MIC-fold improvement vs. vancomycin ([8]; C. difficile AIU ribotype 027): 1; MIC ([8]; Clostridioides difficile, C. difficile AIU ribotype 027, plate drop assay): 45 µM (≈ 65.2 µg/mL); MIC ([9]; Enterococcus faecalis, VRE): 400 µM (≈ 580 µg/mL); MIC-fold improvement vs. vancomycin ([9]; VRE 37, ratio of MIC of vancomycin and MIC of analogue): 1; MIC ([10]; Enterococcus faecalis, VRE): 400 µM (≈ 580 µg/mL); MIC-fold improvement vs. vancomycin ([10]; VRE 29, ratio of MIC of vancomycin and MIC of analogue): 1; MIC ([11]; Staphylococcus aureus VRSA): 100 µM (≈ 145 µg/mL); MIC-fold improvement vs. vancomycin ([11]; VRSA, ratio of MIC of vancomycin and MIC of analogue): 1; MICvanc/MICi ([12]; E. faecalis VRE 53, ratio of MIC of vancomycin and MIC of analogue): 1; MIC ([12]; Enterococcus faecalis VRE 53 (vancomycin-resistant), read-out: MIC): 400 µM (≈ 580 µg/mL); MIC ([12]; Enterococcus faecalis, VRE): 400 µM (≈ 580 µg/mL); MIC-fold improvement vs. vancomycin ([12]; VRE 53, ratio of MIC of vancomycin and MIC of analogue): 1; IC50 [13]: > 250 µM; MIC [14]: 50 µM (≈ 72.5 µg/mL); MIC [15]: 100 µM (≈ 145 µg/mL); IC50 [16]: > 250 µM; MIC [17]: 50 µM (≈ 72.5 µg/mL); MIC [18]: 100 µM (≈ 145 µg/mL); MIC [19]: 3.13 µM (≈ 4.54 µg/mL); MIC-fold improvement vs. vancomycin ([20]; MRSA KS2, ratio of MIC of vancomycin and MIC of analogue): 1; MIC ([20]; Staphylococcus aureus, MRSA): 0.78 µM (≈ 1.13 µg/mL); IC50 [21]: 250 µM; IC50 ([21]; read-out: IC50 (L1210, CEM, HeLa), depending on the cell line used): > 250 µM; IC50 ([21]; read-out: Toxicity (IC50) Average): > 250 µM; MIC-fold improvement vs. vancomycin ([22]; MRSA KS8 (head; KS89 in title), ratio of MIC of vancomycin and MIC of analogue): 1; MIC ([22]; Staphylococcus aureus, MRSA): 0.78 µM (≈ 1.13 µg/mL); MIC50 ([23]; Enterococcus): 800 µM (≈ 1160 µg/mL); TI (IC50/MIC50) [23]: 0.3; TI (IC50/MIC50) ([23]; listed as vancomycin): < 1; MIC ([24]; Staphylococcus aureus, VISA): 6.25 µM (≈ 9.06 µg/mL); MIC-fold improvement vs. vancomycin ([24]; VISA/HIP5827, ratio of MIC of vancomycin and MIC of analogue): 1; MICvanc/MICi ([25]; E. faecalis VSE 1, ratio of MIC of vancomycin and MIC of analogue): 1; MIC ([25]; Enterococcus faecalis VSE 1 (vancomycin-sensitive), read-out: MIC): 1.56 µM (≈ 2.26 µg/mL); MIC ([25]; Enterococcus faecalis, VSE1): 1.56 µM (≈ 2.26 µg/mL); MIC-fold improvement vs. vancomycin ([25]; VSE 1, ratio of MIC of vancomycin and MIC of analogue): 1; MIC-fold improvement vs. vancomycin ([26]; C. difficile ATJ ribotype 014/20): 1; MIC ([26]; Clostridioides difficile, C. difficile ATJ ribotype 014/20, plate drop assay): 35 µM (≈ 50.7 µg/mL); MIC-fold improvement vs. vancomycin ([27]; MRSA KS1, ratio of MIC of vancomycin and MIC of analogue): 1; MIC ([27]; Staphylococcus aureus, MRSA): 0.78 µM (≈ 1.13 µg/mL)
